Experimental data as given in patent publication US8084395B2, “4-aza indole derivatives and their use as fungicides” (Syngenta Crop Protection, Inc., priority 2007, dated 2011).

First: Cc1cnc2c(-c3ccc(F)cc3)c(-c3ccncc3)[nH]c2c1 [Example 1, 3-(4-Fluoro-phenyl)-6-methyl-2-pyridin-4-yl-1H-pyrrolo[3,2-b]pyridine]
Second: COCn1c(-c2ccncc2)c(-c2ccc(F)cc2)c2ncc(C)cc21 [Example 2, 3-(4-Fluoro-phenyl)-1-methoxymethyl-6-methyl-2-pyridin-4-yl-1H-pyrrolo[3,2-b]pyridine]
The melting point of the first is lower: 127 to 128 °C for the first, 208 to 209 °C for the second.

`COCOn1c(-c2ccncc2)c(-c2ccc(F)cc2)c2ncccc21` [Example 5, 3-(4-Fluoro-phenyl)-1-methoxymethoxy-2-pyridin-4-yl-1H-pyrrolo[3,2-b]pyridine] and `Fc1ccc(-c2c(-c3ccncn3)[nH]c3cccnc23)cc1` [Example 11, 3-(4-Fluoro-phenyl)-2-pyrimidin-4-yl-1H-pyrrolo[3,2-b]pyridine] fall in the same range of melting point: 169 to 170 °C for the first, 169 to 170 °C for the second.

First: COC(=O)CC(=O)Nc1cc(-c2[nH]c3cc(C)cnc3c2-c2ccc(F)cc2)ccn1 [Example 8, N-{4-[3-(4-Fluoro-phenyl)-6-methyl-1H-pyrrolo[3,2-b]pyridin-2-yl]-pyridin-2-yl}-malonamic acid methyl ester]
Second: NC(=O)c1cc(-c2[nH]c3cccnc3c2-c2ccc(F)cc2)ccn1 [Example 10, 4-[3-(4-Fluoro-phenyl)-1H-pyrrolo[3,2-b]pyridin-2-yl]-pyridine-2-carboxylic acid amide]
The melting point of the first is higher: 237 to 238 °C for the first, 157 to 158 °C for the second.

First: FCCn1c(-c2ccnc(Nc3cccc(F)c3)c2)c(-c2ccc(F)cc2)c2ncccc21 [Example 9, {4-[1-(2-Fluoro-ethyl)-3-(4-fluoro-phenyl)-1H-pyrrolo[3,2-b]pyridin-2-yl]-pyridin-2-yl}-(3-fluoro-phenyl)-amine]
Second: COCC(C)Nc1nccc(-c2c(-c3ccc(F)cc3)c3ncccc3n2COC)n1 (centres unmarked) [Example 12, {4-[3-(4-Fluoro-phenyl)-1-methoxymethyl-1H-pyrrolo[3,2-b]pyridin-2-yl]-pyrimidin-2-yl}-(2-methoxy-1-methyl-ethyl)-amine]
The melting point of the first is higher: 255 to 256 °C for the first, 151 to 152 °C for the second.
